Experimental data as given in patent US11160885B2, “Phospholipid composition and microbubbles and emulsions formed using same” (Microvascuar Therapeutics LLC, priority 2014, dated 2021).

How the values were obtained:
[1] = Ionization of DPPA as a function of pH; type: physicochemical
From the text: As those skilled in the art will appreciate, DPPA comprises two acidic protons. The pKa for the second acidic proton is about 7.9. FIG. 1 graphically depicts the ionization of DPPA as a function of pH. Curve 110 recites the percent of mono-anion 6 present, and curve 120 recites the percent of di-anion 7 present. At a pH of about 4 and higher, the combined percentages of mono-anion 6 and di-anion 7 total 100.
At a pH of about 7.9, DPPA comprises about 50 percent mono-anion 7 and about 50 percent di-anion 8. At a pH of about 7.0, DPPA comprises about 85 percent mono-anion 7 and about 15 percent di-anion 8.

[2] = cited from earlier work

CCCCCCCCCCCCCCCC(=O)OC[C@H](COP(=O)(O)O)OC(=O)CCCCCCCCCCCCCCC [DPPA, dipalmitoylphosphatidic acid]
percent di-anion ([1]; pH of about 7.0): about 15% | percent mono-anion ([1]; pH of about 7.0): about 85% | percent di-anion ([1]; pH of about 7.9): about 50% | percent mono-anion ([1]; pH of about 7.9): about 50% | pKa for the second acidic proton [2]: about 7.9
